Laboratory results from the NIST ThermoML archive (doi:10.1016/j.jct.2018.12.022).

Legend:
[1] = mn = molality of the nth substance listed, in mol/kg; settings: 85 kPa, Liquid; for viscosity: Falling or rolling sphere viscometry; for speed of sound: Frequency=3 MHz, Single path-length method; for mass density: Vibrating tube method
[2] = refractive index (Na D-line) (dimensionless); mn = molality of the nth substance listed, in mol/kg; settings: 85 kPa, Liquid, Standard Abbe refractometry

C[C@H](N)C(=O)[O-].C[N+](C)(C)CCO [2-hydroxy-N,N,N-trimethylethanaminium L-alaninate] + O
Settings | mass density, [1] [kg/m3] | refractive index, [2] | speed of sound, [1] [m/s] | viscosity, [1] [mPa·s]
288.15 K, m1 = 0.0108 | 999.398 | 1.3338 | 1468 | 1.143
288.15 K, m1 = 0.0204 | 999.663 | 1.334 | 1469.3 | 1.147
288.15 K, m1 = 0.03 | 999.914 | 1.3342 | 1470.7 | 1.151
288.15 K, m1 = 0.0401 | 1000.17 | 1.3345 | 1472.1 | 1.155
288.15 K, m1 = 0.0509 | 1000.44 | 1.3349 | 1473.6 | 1.16
288.15 K, m1 = 0.0583 | 1000.62 | 1.3351 | 1474.6 | 1.163
298.15 K, m1 = 0.0108 | 997.345 | 1.3331 | 1498.4 | 0.897
298.15 K, m1 = 0.0204 | 997.608 | 1.3333 | 1499.7 | 0.9
298.15 K, m1 = 0.03 | 997.858 | 1.3335 | 1501 | 0.903
298.15 K, m1 = 0.0401 | 998.115 | 1.3337 | 1502.4 | 0.906
298.15 K, m1 = 0.0509 | 998.382 | 1.3341 | 1503.9 | 0.91
298.15 K, m1 = 0.0583 | 998.553 | 1.3343 | 1504.9 | 0.912
308.15 K, m1 = 0.0108 | 994.326 | 1.3319 | 1521.6 | 0.732
308.15 K, m1 = 0.0204 | 994.588 | 1.3321 | 1522.9 | 0.735
308.15 K, m1 = 0.03 | 994.839 | 1.3323 | 1524.2 | 0.737
308.15 K, m1 = 0.0401 | 995.097 | 1.3326 | 1525.6 | 0.74
308.15 K, m1 = 0.0509 | 995.362 | 1.333 | 1527 | 0.743
308.15 K, m1 = 0.0583 | 995.534 | 1.3333 | 1528 | 0.745
318.15 K, m1 = 0.0108 | 990.514 | 1.3304 | 1537.5 | 0.604
318.15 K, m1 = 0.0204 | 990.779 | 1.3306 | 1538.8 | 0.607
318.15 K, m1 = 0.03 | 991.029 | 1.3309 | 1540 | 0.609
318.15 K, m1 = 0.0401 | 991.289 | 1.3312 | 1541.3 | 0.611
318.15 K, m1 = 0.0509 | 991.561 | 1.3315 | 1542.8 | 0.613
318.15 K, m1 = 0.0583 | 991.728 | 1.3318 | 1543.7 | 0.615
